What all share (test): UPLC glycosylation assay, […] nm
Holding throughout (format): biochemical, Periploca forrestii
Holding throughout (conditions): UDP-glucose as sugar donor; 10 mM PBS pH 8.0, 37 °C

For experiment [1], the system named is PfUGT74B4.
Experiment [2] concerns PfUGT92A8.
In experiment [3] the test system is PfUGT74E7.
For experiment [4], the system named is PfUGT75C6.

The values that follow come from paper PMC10940802 (Computational and Structural Biotechnology Journal, 2024).

The structures appear in SMILES notation.

In general, Km refers to the concentration of substrate that gives half-maximal velocity. As for `COc1ccc(-c2cc(=O)c3c(O)cc(O)cc3o2)cc1` [Acacetin], the Michaelis constant (Km) in experiment [1] was 2.23 µM.
`O=c1cc(-c2ccc(O)c(O)c2)oc2cc(O)c([C@@H]3O[C@H](CO)[C@@H](O)[C@H](O)[C@H]3O)c(O)c12` [Isoorientin]: the Michaelis-Menten constant (Km) was 134 µM in experiment [2] and 65.2 µM in experiment [1].
As for `O=c1cc(-c2ccc(O)cc2)oc2cc(O)cc(O)c12` [Apigenin], the Km in experiment [2] was 148 µM; in experiment [1], 50.2 µM; in experiment [3], 5.97 µM; in experiment [4], 29 µM.
For the molecule `O=C(CCc1ccc(O)cc1)c1c(O)cc(O)cc1O` [Phloretin], the Km was determined as 34.7 µM in experiment [2] and 45.6 µM in experiment [1].
For `O=c1cc(-c2ccc(O)c(O)c2)oc2cc(O)cc(O)c12` [Luteolin], the Km was 252 µM in experiment [2], 58.3 µM in experiment [1], 7.75 µM in experiment [3] and 28.4 µM in experiment [4].
`O=c1cc(-c2ccc(O)cc2)oc2c([C@@H]3O[C@H](CO)[C@@H](O)[C@H](O)[C@H]3O)c(O)cc(O)c12` [Vitexin]: the figures for the Km in experiment [2] and in experiment [1] were 94.2 µM and 307 µM, respectively.
For the molecule `O=c1cc(-c2ccc(O)cc2)oc2cc(O)c([C@@H]3O[C@H](CO)[C@@H](O)[C@H](O)[C@H]3O)c(O)c12` [Isovitexin], the results for the Michaelis-Menten constant (Km) in experiment [2] and in experiment [1] were 78.2 µM and 58.6 µM, respectively.
For the molecule `O=c1cc(-c2ccc(O)c(O)c2)oc2c([C@@H]3O[C@H](CO)[C@@H](O)[C@H](O)[C@H]3O)c(O)cc(O)c12` [Orientin], in experiment [2], the Michaelis-Menten constant (Km) is 218 µM.
For the molecule `O=C1CC(O)(c2ccc(O)cc2)Oc2cc(O)cc(O)c21` (centres unmarked) [2-Hydroxynaringenin], the values for the Km in experiment [2] and in experiment [1] were 51.4 µM and 47.8 µM, respectively.
